# Results from ChEMBL document CHEMBL5465560, “Selectivity Literature for EUbOPEN Chemogenomic Library” (2024).
# Key:
# [1] = biological target: Ribosomal protein S6 kinase alpha-2 (Homo sapiens) (UniProt Q15349); assay: Selectivity interaction (KinomeScan (DiscoverX)) EUB0001049a RPS6KA2; conditions: at 1 µM
# [2] = biological target: T1, Cyclin-dependent kinase 11A (Homo sapiens) (UniProt Q9UQ88); assay: Selectivity interaction (Kinase panel (KiNativ target engagement assay in Jurkat cells)) EUB0001635a CDK11A; type: cell-based; conditions: Selectivity number of off-targets 0.0, Selectivity number of targets 233.0, Source Knowledge https://www.sciencedirect.com/science/article/pii/S2451945619300674?via%3Dihub, at 1 µM
# T1 sequence (whole entry): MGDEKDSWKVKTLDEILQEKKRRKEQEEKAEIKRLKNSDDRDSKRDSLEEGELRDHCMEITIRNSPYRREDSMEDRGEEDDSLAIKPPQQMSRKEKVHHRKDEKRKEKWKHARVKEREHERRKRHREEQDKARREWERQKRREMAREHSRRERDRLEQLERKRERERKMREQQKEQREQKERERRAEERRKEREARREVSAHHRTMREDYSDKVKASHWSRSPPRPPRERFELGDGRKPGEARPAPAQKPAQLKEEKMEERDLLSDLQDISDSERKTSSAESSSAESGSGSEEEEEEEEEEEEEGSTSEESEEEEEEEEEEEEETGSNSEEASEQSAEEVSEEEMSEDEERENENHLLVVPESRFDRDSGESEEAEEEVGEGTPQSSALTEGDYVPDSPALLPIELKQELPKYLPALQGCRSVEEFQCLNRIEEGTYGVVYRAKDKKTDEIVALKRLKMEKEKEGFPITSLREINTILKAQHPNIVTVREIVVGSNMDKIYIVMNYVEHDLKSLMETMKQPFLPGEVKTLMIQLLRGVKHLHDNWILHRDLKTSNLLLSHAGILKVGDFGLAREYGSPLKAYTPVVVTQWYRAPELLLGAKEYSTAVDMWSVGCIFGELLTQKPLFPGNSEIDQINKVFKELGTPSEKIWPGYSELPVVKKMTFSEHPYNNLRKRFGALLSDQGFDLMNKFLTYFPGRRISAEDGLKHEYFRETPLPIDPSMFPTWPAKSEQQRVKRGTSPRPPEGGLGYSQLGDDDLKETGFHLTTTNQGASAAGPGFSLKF
# [3] = biological target: Serine/threonine-protein kinase pim-3 (Homo sapiens) (UniProt Q86V86); assay: Selectivity interaction (Kinase panel (DSF assay)) EUB0001559a PIM3
# [4] = biological target: 1-phosphatidylinositol 3-phosphate 5-kinase (Homo sapiens) (UniProt Q9Y2I7); assay: Selectivity interaction (ActivX KiNativ screen (kinase selectivity in THP-1 cell lysates)) EUB0000639a PIKFYVE; type: subcellular; conditions: lysate
# Sequence of 1-phosphatidylinositol 3-phosphate 5-kinase (Homo sapiens) (Q9Y2I7 whole entry): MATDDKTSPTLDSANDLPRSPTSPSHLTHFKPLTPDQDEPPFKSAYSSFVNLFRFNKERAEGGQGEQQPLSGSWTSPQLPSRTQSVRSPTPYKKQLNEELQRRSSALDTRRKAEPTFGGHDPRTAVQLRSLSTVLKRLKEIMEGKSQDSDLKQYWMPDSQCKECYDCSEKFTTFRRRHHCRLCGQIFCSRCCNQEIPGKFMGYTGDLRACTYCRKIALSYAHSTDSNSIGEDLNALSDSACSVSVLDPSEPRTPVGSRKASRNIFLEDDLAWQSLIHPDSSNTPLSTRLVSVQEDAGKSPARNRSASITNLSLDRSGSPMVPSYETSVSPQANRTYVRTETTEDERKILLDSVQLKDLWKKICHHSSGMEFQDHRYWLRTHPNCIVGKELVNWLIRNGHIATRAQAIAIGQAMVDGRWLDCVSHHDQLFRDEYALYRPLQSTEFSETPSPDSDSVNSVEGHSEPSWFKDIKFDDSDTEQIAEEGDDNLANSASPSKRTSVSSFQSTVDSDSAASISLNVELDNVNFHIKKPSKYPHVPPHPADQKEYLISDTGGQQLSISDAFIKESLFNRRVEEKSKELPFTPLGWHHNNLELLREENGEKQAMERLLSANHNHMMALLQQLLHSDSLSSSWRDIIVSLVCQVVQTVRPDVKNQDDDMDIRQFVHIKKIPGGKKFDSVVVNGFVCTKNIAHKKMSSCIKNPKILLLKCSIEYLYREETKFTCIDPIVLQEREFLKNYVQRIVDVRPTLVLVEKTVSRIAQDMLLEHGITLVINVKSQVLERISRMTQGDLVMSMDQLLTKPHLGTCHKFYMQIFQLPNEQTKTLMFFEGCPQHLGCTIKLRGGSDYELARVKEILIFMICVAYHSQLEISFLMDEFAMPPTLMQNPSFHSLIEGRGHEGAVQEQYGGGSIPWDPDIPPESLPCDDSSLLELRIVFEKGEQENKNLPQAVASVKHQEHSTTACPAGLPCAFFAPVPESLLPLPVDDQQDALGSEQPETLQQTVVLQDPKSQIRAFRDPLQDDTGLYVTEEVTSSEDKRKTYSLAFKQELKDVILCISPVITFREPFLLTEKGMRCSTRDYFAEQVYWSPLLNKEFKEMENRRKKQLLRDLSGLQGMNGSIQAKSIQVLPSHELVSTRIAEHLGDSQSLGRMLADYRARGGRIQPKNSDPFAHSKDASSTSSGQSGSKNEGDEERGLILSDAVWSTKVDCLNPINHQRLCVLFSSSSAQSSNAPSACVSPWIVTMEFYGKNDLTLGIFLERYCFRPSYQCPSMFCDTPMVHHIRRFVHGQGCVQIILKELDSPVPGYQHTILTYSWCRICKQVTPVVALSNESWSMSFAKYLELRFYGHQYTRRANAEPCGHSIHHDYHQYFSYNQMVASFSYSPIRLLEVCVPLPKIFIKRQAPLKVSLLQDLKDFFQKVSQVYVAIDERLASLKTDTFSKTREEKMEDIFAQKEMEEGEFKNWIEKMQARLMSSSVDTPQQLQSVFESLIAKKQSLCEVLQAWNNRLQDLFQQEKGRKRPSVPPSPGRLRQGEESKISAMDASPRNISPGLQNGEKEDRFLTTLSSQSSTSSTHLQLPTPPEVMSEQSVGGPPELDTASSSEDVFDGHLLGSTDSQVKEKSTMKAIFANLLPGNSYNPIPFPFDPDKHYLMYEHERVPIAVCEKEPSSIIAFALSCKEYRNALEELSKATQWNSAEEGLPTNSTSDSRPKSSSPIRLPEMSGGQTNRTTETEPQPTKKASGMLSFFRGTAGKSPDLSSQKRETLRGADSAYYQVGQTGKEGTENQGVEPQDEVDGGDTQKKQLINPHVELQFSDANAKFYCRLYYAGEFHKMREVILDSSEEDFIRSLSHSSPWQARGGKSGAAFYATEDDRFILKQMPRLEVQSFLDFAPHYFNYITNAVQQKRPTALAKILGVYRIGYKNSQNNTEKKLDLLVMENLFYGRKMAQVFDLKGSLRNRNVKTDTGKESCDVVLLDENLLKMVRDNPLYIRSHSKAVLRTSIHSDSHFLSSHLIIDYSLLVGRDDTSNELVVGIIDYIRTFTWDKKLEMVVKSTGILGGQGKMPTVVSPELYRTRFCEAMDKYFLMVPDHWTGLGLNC
# [5] = biological target: Serine/threonine-protein kinase 26 (Homo sapiens, UniProt Q9P289); assay: Selectivity interaction (KinomeScan (DiscoverX)) EUB0000595a STK26; conditions: at 10 µM
# Sequence of Serine/threonine-protein kinase 26 (Q9P289 2-416 limits assumed): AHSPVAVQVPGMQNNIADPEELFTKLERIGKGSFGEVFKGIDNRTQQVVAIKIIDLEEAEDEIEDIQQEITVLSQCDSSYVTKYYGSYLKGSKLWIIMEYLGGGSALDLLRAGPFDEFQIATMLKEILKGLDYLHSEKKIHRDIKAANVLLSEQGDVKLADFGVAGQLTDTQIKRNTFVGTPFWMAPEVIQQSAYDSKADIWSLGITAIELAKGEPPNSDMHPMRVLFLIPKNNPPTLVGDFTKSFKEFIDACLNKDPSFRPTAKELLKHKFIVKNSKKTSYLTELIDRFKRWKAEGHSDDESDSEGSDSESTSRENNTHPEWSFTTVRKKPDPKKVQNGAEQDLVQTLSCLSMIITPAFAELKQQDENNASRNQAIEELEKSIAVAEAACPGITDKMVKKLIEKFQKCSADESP
# [6] = biological target: Mitogen-activated protein kinase kinase kinase kinase 4 (Homo sapiens, UniProt O95819); assay: Selectivity interaction (Kinase screening (Nanosyn)) EUB0000604a MAP4K4
# Sequence of Mitogen-activated protein kinase kinase kinase kinase 4 (O95819 2-1239 limits assumed): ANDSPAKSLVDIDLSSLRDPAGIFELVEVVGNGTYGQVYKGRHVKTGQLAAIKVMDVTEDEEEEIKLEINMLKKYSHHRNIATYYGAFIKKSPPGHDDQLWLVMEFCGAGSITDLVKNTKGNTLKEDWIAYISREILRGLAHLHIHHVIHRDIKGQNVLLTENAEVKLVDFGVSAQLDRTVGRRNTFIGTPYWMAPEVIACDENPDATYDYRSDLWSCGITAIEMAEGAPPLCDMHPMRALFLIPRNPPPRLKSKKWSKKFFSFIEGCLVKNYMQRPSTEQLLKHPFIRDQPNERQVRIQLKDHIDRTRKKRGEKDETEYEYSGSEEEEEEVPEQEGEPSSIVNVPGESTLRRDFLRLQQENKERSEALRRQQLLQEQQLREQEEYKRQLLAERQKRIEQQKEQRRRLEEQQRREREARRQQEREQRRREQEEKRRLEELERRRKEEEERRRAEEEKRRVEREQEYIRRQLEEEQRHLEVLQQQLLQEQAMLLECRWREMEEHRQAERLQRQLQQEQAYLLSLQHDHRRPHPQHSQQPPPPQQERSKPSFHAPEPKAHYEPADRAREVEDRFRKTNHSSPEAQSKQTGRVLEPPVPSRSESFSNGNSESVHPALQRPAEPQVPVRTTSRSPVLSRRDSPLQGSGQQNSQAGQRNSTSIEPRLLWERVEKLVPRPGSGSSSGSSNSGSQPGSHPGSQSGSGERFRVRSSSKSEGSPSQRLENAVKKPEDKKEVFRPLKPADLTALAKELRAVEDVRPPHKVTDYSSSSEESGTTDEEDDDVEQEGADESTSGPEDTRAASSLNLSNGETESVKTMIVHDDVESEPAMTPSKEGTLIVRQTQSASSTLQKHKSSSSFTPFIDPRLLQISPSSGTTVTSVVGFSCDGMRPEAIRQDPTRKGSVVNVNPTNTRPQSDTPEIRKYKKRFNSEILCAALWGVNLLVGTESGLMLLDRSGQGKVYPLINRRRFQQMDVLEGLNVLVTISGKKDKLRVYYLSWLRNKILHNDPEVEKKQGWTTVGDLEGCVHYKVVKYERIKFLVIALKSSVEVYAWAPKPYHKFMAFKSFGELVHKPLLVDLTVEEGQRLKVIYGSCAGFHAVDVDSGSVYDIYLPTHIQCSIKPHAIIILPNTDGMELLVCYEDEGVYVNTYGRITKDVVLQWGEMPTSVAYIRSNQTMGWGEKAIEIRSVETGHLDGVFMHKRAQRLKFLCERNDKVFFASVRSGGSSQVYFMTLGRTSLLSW
# [7] = biological target: T2, Rhodopsin kinase GRK1 (Homo sapiens) (UniProt Q15835); assay: Selectivity interaction (Ambit KINOMEscan and KiNATiv profiling in Jurkat cells) EUB0000090b GRK1; type: cell-based; conditions: at 1 µM
# T2 sequence (whole entry): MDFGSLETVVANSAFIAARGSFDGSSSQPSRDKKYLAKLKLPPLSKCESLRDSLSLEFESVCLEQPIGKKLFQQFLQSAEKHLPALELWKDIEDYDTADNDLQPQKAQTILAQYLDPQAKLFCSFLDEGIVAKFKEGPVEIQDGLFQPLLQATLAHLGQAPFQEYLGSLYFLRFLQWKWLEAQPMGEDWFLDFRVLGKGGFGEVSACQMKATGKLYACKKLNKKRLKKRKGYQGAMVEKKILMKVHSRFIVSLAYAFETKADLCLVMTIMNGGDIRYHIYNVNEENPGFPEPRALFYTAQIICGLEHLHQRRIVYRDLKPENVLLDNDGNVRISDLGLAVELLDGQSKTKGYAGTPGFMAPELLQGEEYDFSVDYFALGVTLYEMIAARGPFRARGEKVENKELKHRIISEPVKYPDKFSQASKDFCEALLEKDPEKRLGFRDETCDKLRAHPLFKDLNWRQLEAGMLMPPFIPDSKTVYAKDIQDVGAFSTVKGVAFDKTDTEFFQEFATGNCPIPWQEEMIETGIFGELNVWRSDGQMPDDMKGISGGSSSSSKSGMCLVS
# [8] = biological target: T3, Mitogen-activated protein kinase 13 (Homo sapiens) (UniProt O15264); assay: Selectivity interaction (ActivX KiNativ screen (ex vivo kinase selectivity in human PBMCs)) EUB0001619a MAPK13; type: cell-based; conditions: PBMC, at 1 µM
# T3 sequence (whole entry): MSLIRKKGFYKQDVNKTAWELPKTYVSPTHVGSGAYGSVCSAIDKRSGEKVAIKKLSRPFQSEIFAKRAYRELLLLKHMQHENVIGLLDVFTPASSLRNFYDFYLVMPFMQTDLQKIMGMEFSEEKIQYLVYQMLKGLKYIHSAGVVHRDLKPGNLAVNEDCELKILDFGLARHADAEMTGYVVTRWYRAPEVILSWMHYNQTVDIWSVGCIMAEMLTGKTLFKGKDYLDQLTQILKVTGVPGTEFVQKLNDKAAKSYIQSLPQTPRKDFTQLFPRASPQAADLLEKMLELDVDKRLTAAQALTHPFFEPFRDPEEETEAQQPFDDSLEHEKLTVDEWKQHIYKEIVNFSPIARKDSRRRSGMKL
# Sequence of Ribosomal protein S6 kinase alpha-2 (Homo sapiens) (Q15349 whole entry): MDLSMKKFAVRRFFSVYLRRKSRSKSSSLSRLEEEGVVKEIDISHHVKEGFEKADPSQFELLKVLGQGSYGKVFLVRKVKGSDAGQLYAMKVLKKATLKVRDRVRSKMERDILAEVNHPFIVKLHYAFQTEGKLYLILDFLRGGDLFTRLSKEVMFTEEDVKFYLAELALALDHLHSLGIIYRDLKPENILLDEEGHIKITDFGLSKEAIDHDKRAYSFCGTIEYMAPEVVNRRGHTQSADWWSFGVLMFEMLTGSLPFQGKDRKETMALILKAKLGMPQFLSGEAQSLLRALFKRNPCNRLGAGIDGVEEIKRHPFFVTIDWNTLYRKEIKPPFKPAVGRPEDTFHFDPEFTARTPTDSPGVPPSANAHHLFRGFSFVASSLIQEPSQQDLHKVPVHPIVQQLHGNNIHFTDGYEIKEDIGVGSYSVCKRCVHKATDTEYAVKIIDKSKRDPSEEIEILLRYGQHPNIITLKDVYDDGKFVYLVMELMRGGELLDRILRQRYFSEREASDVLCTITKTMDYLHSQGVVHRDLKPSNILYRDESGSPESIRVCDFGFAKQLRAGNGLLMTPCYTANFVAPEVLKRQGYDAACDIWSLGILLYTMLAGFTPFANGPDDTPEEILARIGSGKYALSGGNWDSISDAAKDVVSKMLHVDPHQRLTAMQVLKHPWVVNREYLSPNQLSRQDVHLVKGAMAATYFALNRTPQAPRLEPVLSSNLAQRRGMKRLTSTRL
smiles,measurement,setting,value
COc1cc(Nc2nc(C)cc(-c3cnn4nc(OC)ccc34)n2)cc(C(F)(F)F)c1,% of control,[1],93%
C=CC(=O)Nc1ccc(C(=O)Nc2[nH]nc3c2CN(C(=O)N[C@H](CN(C)C)c2ccccc2)C3(C)C)cc1,% of engagement,[2],-0.8%
CN(C(=O)c1cnn2cccnc12)c1cc2c(cc1N1CCOCC1)C(=O)N(C[C@@H](F)C(C)(C)O)C2,dTM,[3],-0.4 K
CC[C@@H]1[C@H](F)C(=O)N[C@@H]1COc1nccc2cc(C(N)=O)c(OC)cc12 [ZIMLOVISERTIB],% of inhibition,[4]; at 0.01 µM,11%
same,% of inhibition,[4]; at 0.04 µM,8.8%
same,% of inhibition,[4]; at 0.2 µM,-0.1%
same,% of inhibition,[4]; at 1 µM,21.3%
same,% of inhibition,[4]; at 5 µM,29.2%
COCC(=O)NC/C=C/c1ccc2ncnc(Nc3ccc(Oc4ccc(C)nc4)c(C)c3)c2c1 [CP-724714],% of control,[5],90%
Cc1cnc(Nc2ccc(F)cc2Cl)nc1-c1c[nH]c(C(=O)N[C@H](CO)c2cccc(Cl)c2)c1,% of inhibition,[6],18%
CN(C)C/C=C/C(=O)Nc1ccc(C(=O)N2CCCC(Nc3ncc(Cl)c(-c4c[nH]c5ccccc45)n3)C2)cc1 (configuration not stated),% of control,[7],57%
N#Cc1cccc(-c2c[nH]c3ncnc(N4CCOCC4)c23)c1,% of inhibition,[8],-6%
